Publication PMC7377239, “Cardiovascular Effects of Polychlorinated Biphenyls and Their Major Metabolites” (Environmental Health Perspectives, 2020)
Read-outs that look alike come from different tables or passages of the source.

What was measured:
[1] = system: iCell endothelial cells (human iPSC-derived ECs); assay: Tube formation (tubulogenesis) assay in iCell endothelial cells, 18 h; type: cell-based; details: Homo sapiens, Endothelial cell, 18 hr; for activity at 0.1 µM: 0.10 µM
In short: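 Tube formation was measured by calcein AM imaging after overnight compound exposure (37°C, 0.5% DMSO vehicle) of human iPSC-derived ECs, 7,500/well, on reduced-growth-factor Geltrex in starvation medium. Vehicle-normalized data fitted to four-parameter logistic; POD set at one vehicle SD; without response, 100 μM taken as NOAEL.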

HUVECs = assay: High-content imaging cytotoxicity in HUVECs, 24 h; type: cell-based, human; details: Homo sapiens, HUVEC, 24 h, HUVEC; for viability at 0.01 µM / activity at 0.01 µM / viability at 0.1 µM / activity at 0.1 µM / viability at 1 µM / activity at 1 µM / viability at 10 µM / activity at 10 µM / viability at 100 µM / activity at 100 µM: 0.00 µM = 100.00; for viability at 0.1 µM / activity at 0.1 µM: 0.10 µM
In short: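 Read-out: multiwavelength high-content imaging of Hoechst 33342, MitoTracker Orange and calcein AM after 24 h compound exposure of confluent HUVEC monolayers. POD values were set using a one-SD cutoff from vehicle (0.5% DMSO) means; with no concentration–response, 100μM was assigned as no observable adverse effect level.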

[2] = endothelial cells (endo), tube formation mtl, read-out: POD endo.mtl.18hr
[3] = endothelial cells (endo), tube formation tlps, read-out: POD endo.tlps.18hr
[4] = endothelial cells (endo), tube formation tta, read-out: POD endo.tta.18hr
[5] = endothelial cells (endo), tube formation ttl, read-out: POD endo.ttl.18hr
[6] = iPSC-EC tube formation, 0.00 µM control = 100.00, read-out: endo.mtl.18hr
[7] = iPSC-EC tube formation, 0.00 µM control = 100.00, read-out: endo.tlps.18hr
[8] = iPSC-EC tube formation, 0.00 µM control = 100.00, read-out: endo.tta.18hr
[9] = iPSC-EC tube formation, 0.00 µM control = 100.00, read-out: endo.ttl.18hr
[10] = cyto, 24 hr, read-out: POD huvec.cyto.24hr
[11] = mito, 24 hr, read-out: POD huvec.mito.24hr
[12] = mitoint, 24 hr, read-out: POD huvec.mitoint.24hr
[13] = nma, 24 hr, read-out: POD huvec.nma.24hr
[14] = tc, 24 hr, read-out: POD huvec.tc.24hr
[15] = HUVECs, 24 hr, read-out: huvec.cyto.24hr
[16] = HUVECs, 24 hr, read-out: huvec.mito.24hr
[17] = HUVECs, 24 hr, read-out: huvec.mitoint.24hr
[18] = HUVECs, 24 hr, read-out: huvec.nma.24hr
[19] = HUVECs, 24 hrs, read-out: huvec.tc.24hrs

Q: `O=C1C=CC(=O)C(c2ccc(Cl)cc2)=C1` [4-Cl-BQ, 2-(4-Chlorophenyl)benzo-2,5-quinone] was tested. Which minimal effective concentration [1, 2] did it give?
A: 0.38 µM

Q: And the minimal effective concentration [1, 3]?
A: 1.04 µM

Q: What about the minimal effective concentration [1, 4] of the same compound?
A: 23 µM

Q: And the minimal effective concentration [1, 5]?
A: 11.8 µM

Q: What about the activity at 0.01 µM [1, 6] of the same compound?
A: 102%

Q: What about the activity at 0.01 µM [1, 7] of the same compound?
A: 96%

Q: And the activity at 0.01 µM [1, 8]?
A: 156%

Q: What about the activity at 0.01 µM [1, 9] of the same compound?
A: 153%

Q: What about the activity at 0.1 µM [1, 6] of the same compound?
A: 96.3%

Q: What about the activity at 0.1 µM [1, 7] of the same compound?
A: 114%

Q: And the activity at 0.1 µM [1, 8]?
A: 135%

Q: And the activity at 0.1 µM [1, 9]?
A: 131%

Q: What about the activity at 1 µM [1, 6] of the same compound?
A: 77.5%

Q: What about the activity at 1 µM [1, 7] of the same compound?
A: 70.1%

Q: And the activity at 1 µM [1, 8]?
A: 111%

Q: What about the activity at 1 µM [1, 9] of the same compound?
A: 109%

Q: And the activity at 10 µM [1, 6]?
A: 68.9%

Q: And the activity at 10 µM [1, 7]?
A: 45%

Q: What about the activity at 10 µM [1, 8] of the same compound?
A: 99.9%

Q: What about the activity at 10 µM [1, 9] of the same compound?
A: 77.6%

Q: What about the activity at 100 µM [1, 6] of the same compound?
A: 59.2%

Q: And the activity at 100 µM [1, 7]?
A: 9.31%

Q: What about the activity at 100 µM [1, 8] of the same compound?
A: 0.43%

Q: What about the activity at 100 µM [1, 9] of the same compound?
A: 0.77%

Q: And the minimal effective concentration ([1]; iPSC-EC tube formation, top concentration 100.00 µM, read-out: endo.mtl.18hr POD)?
A: 0.38 µM

Q: And the minimal effective concentration ([1]; iPSC-EC tube formation, top concentration 100.00 µM, read-out: endo.tlps.18hr POD)?
A: 1.04 µM

Q: And the minimal effective concentration ([1]; iPSC-EC tube formation, top concentration 100.00 µM, read-out: endo.tta.18hr POD)?
A: 23 µM

Q: And the minimal effective concentration ([1]; iPSC-EC tube formation, top concentration 100.00 µM, read-out: endo.ttl.18hr POD)?
A: 11.8 µM

Q: And the minimal effective concentration (HUVECs; [10])?
A: 0.00637 µM

Q: And the minimal effective concentration (HUVECs; [11])?
A: 0.08 µM

Q: And the minimal effective concentration (HUVECs; [12])?
A: 0.68 µM

Q: And the minimal effective concentration (HUVECs; [13])?
A: 0.53 µM

Q: What about the minimal effective concentration (HUVECs; [14]) of the same compound?
A: 0.00637 µM

Q: And the viability at 0.01 µM (HUVECs; [15])?
A: 89.2%

Q: What about the activity at 0.01 µM (HUVECs; [16]) of the same compound?
A: 87.8%

Q: What about the activity at 0.01 µM (HUVECs; [17]) of the same compound?
A: 92.4%

Q: And the activity at 0.01 µM (HUVECs; [18])?
A: 101%

Q: What about the viability at 0.1 µM (HUVECs; [15]) of the same compound?
A: 101%

Q: And the activity at 0.1 µM (HUVECs; [16])?
A: 101%

Q: What about the activity at 0.1 µM (HUVECs; [17]) of the same compound?
A: 105%

Q: And the activity at 0.1 µM (HUVECs; [18])?
A: 101%

Q: What about the viability at 1 µM (HUVECs; [15]) of the same compound?
A: 75.5%

Q: What about the activity at 1 µM (HUVECs; [16]) of the same compound?
A: 69.3%

Q: What about the activity at 1 µM (HUVECs; [17]) of the same compound?
A: 58.6%

Q: And the activity at 1 µM (HUVECs; [18])?
A: 81.8%

Q: What about the viability at 10 µM (HUVECs; [15]) of the same compound?
A: 56%

Q: And the activity at 10 µM (HUVECs; [16])?
A: 30.5%

Q: And the activity at 10 µM (HUVECs; [17])?
A: 10.8%

Q: And the activity at 10 µM (HUVECs; [18])?
A: 74.2%

Q: What about the viability at 100 µM (HUVECs; [15]) of the same compound?
A: 87.4%

Q: What about the activity at 100 µM (HUVECs; [16]) of the same compound?
A: 1.29%

Q: And the activity at 100 µM (HUVECs; [17])?
A: 44%

Q: And the activity at 100 µM (HUVECs; [18])?
A: 73.5%

Q: And the minimal effective concentration (HUVECs; HUVECs, 24 hr, top concentration 100.00 µM, read-out: huvec.cyto.24hr POD)?
A: 0.00637 µM

Q: What about the minimal effective concentration (HUVECs; HUVECs, 24 hr, top concentration 100.00 µM, read-out: huvec.mito.24hr POD) of the same compound?
A: 0.08 µM

Q: What about the minimal effective concentration (HUVECs; HUVECs, 24 hr, top concentration 100.00 µM, read-out: huvec.mitoint.24hr POD) of the same compound?
A: 0.68 µM

Q: What about the minimal effective concentration (HUVECs; HUVECs, 24 hr, top concentration 100.00 µM, read-out: huvec.nma.24hr POD) of the same compound?
A: 0.53 µM

Q: What about the viability at 0.01 µM (HUVECs; [19]) of the same compound?
A: 89.3%

Q: What about the viability at 0.1 µM (HUVECs; [19]) of the same compound?
A: 101%

Q: What about the viability at 1 µM (HUVECs; [19]) of the same compound?
A: 75.5%

Q: And the viability at 10 µM (HUVECs; [19])?
A: 56%

Q: What about the viability at 100 µM (HUVECs; [19]) of the same compound?
A: 99.4%

Q: What about the minimal effective concentration (HUVECs; HUVECs, 24 hrs, top concentration 100.00 µM, read-out: huvec.tc.24hrs POD) of the same compound?
A: 0.00637 µM

Q: What does the source list for `Clc1ccc(Cl)c(-c2cc(Cl)ccc2Cl)c1` [PCB 52, 2,2′,5,5′-tetrachlorobiphenyl]?
A: minimal effective concentration [1, 2]: 79.8 µM; minimal effective concentration [1, 3]: 100 µM; minimal effective concentration [1, 4]: 100 µM; minimal effective concentration [1, 5]: 100 µM; minimal effective concentration (HUVECs; [10]): 0.67 µM; minimal effective concentration (HUVECs; [11]): 0.57 µM; minimal effective concentration (HUVECs; [12]): 6.01 µM; minimal effective concentration (HUVECs; [13]): 4.97 µM; minimal effective concentration (HUVECs; [14]): 0.67 µM
